From patent publication US20060263294A1, “Tumor targeting agents and uses thereof” (KARYON OY, priority 2002, published 2006)
Bridge positions count the residues as written; N and C are the ends. Peptide text beside a SMILES is read from it. * marks the point of attachment. X1 = COc1cccc2c1C(=O)c1c(O)c3c(c(O)c1C2=O)C[C@@](C)(/C(CO)=N/OCC(=O)*)C[C@@H]3OC1CC(N)C(O)C(C)O1

Test system: C8161M/T1 melanoma cells tumours
Assay: Therapeutic effect of targeting agent comprising cytotoxic effector unit on melanoma tumors
Assay type: in vivo, Athymic-nu mice
Conditions: 1,43 mg/kg i.v. twice a week, five doses; s.c. C8161M/T1 melanoma; FIG. 1
Procedure: 1 million C8161M/T1 melanoma cells were injected subcutaneously into flank of eight Athymic-nu mice and tumours were allowed to grow for one week. The mice were then divided into three groups those received the following treatments: • Group DMEM: two mice, DMEM only • Group Dox: two mice, 1,43 mg/kg doxorubicin dissolved in DMEM • Group pept+dox: four mice, 1,43 mg/kg Dxrb-Aoa-DLRSK (doxorubicin linked to targeting mofif LRS) dissolved in DMEM (dose equimolar to Group Dox)
Treatments were administered i.v. twice a week (Tuesdays and Fridays), total of five doses were injected. Tumours were measured with a calliper in two perpendicular directions on each injection day and on the day the animals were sacrificed. Tumour volume was calculated by the formula for ellipsoid: Volume=(length×width^2)×0.5

## COc1cccc2c1C(=O)c1c(O)c3c(c(O)c1C2=O)C[C@@](C)(/C(CO)=N/OCC(=O)N[C@H]1CC(=O)NCCCC[C@@H](C(=O)O)NC(=O)[C@H](CO)NC(=O)[C@H](CCCNC(=N)N)NC(=O)[C@H](CC(C)C)NC1=O)C[C@@H]3OC1CC(N)C(O)C(C)O1 (some centres unmarked) [Dxrb-Aoa-DLRSK] (X1-DLRSK-OH; lactam 1-5)
  selective targeting to melanoma tumor in vivo: selectively targets to melanoma tumor in vivo
  therapeutic effect (tumour volume) compared with doxorubicin: significantly increases the therapeutic effect of doxorubicin
